Key:
[1] = molecular target: T1, human recombinant LRRK2 protein (Homo sapiens, UniProt Q5S007); experiment: LRRK2 kinase activity assay (Eurofins, gamma-33P-ATP, filtermat scintillation counting); type: biochemical; details: human recombinant LRRK2, 40 minutes at room temperature
T1 construct: purchased Eurofins
Experimental: (§1) Compounds 1 to 119 synthesized in Example 1 according to the present disclosure were assayed for inhibitory activity against MLK3/LRRK2 enzymes and anticancer activity against HepG2/HS746T cancer cells, and the results are summarized in Table 1, below.
(§2) Inhibitory activity against MLK3 and LRRK2 enzymes was evaluated in Eurofins. In brief, human recombinant MLK3 protein was mixed with the compounds in a reaction buffer (8 mM MOPS (pH 7.0), 0.2 mM EDTA, 0.33 mg/mL myelin basic protein, 5 mM DTT) to which a mixture of 10 mM magnesium acetate and gamma-33P-ATP was then added before incubation at room temperature for 120 minutes. Afterward, the reaction was terminated with 0.5% phosphoric acid. Ten μL of the total mixture was spotted onto a P30 filtermat which was then washed four times for 4 minutes with 0.425% phosphoric acid and once in methanol prior to scintillation counting. Values for the activity of MLK3 were expressed as % of the control. For the activity of LRRK2, human recombinant LRRK2 protein was mixed with the compounds in a reaction buffer (50 mM HEPES (pH 8.0), 0.2 mM EDTA, 0.01% Brij-35, 1% (w/v) BSA, 5 mM DTT, 250 uM substrate peptide RLGRDKYKTLRQIRQ) and then reacted with a mixture of 10 mM magnesium acetate and gamma-33P-ATP at room temperature for 40 minutes. Afterward, the reaction was terminated with 0.5% phosphoric acid. Ten μL of the total mixture was spotted onto a P30 filtermat which was then washed four times for 4 minutes with 0.425% phosphoric acid and once in methanol prior to scintillation counting. Values for the activity of LRRK2 were expressed as % of the control.

HepG2 cancer cells = experiment: Anticancer activity, cell viability by CCK-8, HepG2; type: cell-based; details: HepG2, 10 μM, 72 hours
Experimental: (§3) Compounds 1 to 119 synthesized in Example 1 according to the present disclosure were assayed for inhibitory activity against MLK3/LRRK2 enzymes and anticancer activity against HepG2/H[…] cancer cells, and the results are summarized in Table 1, below. Assay for anticancer activity was conducted as follows. HepG2 and H[…] cancer cells were purchased from the Korean Cell Line Bank and cultured according to the instruction provided thereby. One hundred μL of a culture of the cells were seeded at a density of 4,000 cells/well into 96-well plates. After 24 hours, the cells were treated with the compounds for 72 hours. Then, cell viability was assayed using CCK-8 and expressed as % of the control.

HS746T cancer cells = experiment: Anticancer activity, cell viability by CCK-8, HS746T; type: cell-based; details: 72 hours
Experimental: as §3

[2] = molecular target: T2, human recombinant MLK3 protein (Homo sapiens, UniProt Q16584); experiment: MLK3 kinase activity assay (Eurofins, gamma-33P-ATP, filtermat scintillation counting); type: biochemical; details: human recombinant MLK3, 120 minutes at room temperature
T2 construct: purchased Eurofins
T2 sequence (Q16584 whole entry): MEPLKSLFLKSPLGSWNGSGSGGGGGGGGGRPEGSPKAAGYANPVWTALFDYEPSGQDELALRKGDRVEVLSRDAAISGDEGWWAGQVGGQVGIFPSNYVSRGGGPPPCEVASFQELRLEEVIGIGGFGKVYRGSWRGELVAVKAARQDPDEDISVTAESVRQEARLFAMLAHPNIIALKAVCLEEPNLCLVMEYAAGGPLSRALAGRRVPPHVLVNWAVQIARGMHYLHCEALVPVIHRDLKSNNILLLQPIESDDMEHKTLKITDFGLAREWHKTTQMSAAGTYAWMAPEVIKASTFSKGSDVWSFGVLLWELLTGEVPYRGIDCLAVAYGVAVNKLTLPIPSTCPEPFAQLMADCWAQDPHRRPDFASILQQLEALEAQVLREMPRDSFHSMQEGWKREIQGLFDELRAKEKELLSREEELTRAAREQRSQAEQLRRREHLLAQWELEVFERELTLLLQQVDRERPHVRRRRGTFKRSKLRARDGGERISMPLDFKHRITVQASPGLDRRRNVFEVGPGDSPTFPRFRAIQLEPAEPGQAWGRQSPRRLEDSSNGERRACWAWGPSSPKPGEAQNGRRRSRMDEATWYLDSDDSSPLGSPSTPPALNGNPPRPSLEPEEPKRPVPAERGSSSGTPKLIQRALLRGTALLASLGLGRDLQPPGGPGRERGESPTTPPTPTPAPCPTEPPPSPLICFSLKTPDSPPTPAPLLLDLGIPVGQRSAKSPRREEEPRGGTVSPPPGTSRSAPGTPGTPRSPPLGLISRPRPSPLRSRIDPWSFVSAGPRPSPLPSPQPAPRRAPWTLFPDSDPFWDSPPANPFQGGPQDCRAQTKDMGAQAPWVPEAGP
Experimental: as §1, §2

T1 sequence (Q5S007 whole entry): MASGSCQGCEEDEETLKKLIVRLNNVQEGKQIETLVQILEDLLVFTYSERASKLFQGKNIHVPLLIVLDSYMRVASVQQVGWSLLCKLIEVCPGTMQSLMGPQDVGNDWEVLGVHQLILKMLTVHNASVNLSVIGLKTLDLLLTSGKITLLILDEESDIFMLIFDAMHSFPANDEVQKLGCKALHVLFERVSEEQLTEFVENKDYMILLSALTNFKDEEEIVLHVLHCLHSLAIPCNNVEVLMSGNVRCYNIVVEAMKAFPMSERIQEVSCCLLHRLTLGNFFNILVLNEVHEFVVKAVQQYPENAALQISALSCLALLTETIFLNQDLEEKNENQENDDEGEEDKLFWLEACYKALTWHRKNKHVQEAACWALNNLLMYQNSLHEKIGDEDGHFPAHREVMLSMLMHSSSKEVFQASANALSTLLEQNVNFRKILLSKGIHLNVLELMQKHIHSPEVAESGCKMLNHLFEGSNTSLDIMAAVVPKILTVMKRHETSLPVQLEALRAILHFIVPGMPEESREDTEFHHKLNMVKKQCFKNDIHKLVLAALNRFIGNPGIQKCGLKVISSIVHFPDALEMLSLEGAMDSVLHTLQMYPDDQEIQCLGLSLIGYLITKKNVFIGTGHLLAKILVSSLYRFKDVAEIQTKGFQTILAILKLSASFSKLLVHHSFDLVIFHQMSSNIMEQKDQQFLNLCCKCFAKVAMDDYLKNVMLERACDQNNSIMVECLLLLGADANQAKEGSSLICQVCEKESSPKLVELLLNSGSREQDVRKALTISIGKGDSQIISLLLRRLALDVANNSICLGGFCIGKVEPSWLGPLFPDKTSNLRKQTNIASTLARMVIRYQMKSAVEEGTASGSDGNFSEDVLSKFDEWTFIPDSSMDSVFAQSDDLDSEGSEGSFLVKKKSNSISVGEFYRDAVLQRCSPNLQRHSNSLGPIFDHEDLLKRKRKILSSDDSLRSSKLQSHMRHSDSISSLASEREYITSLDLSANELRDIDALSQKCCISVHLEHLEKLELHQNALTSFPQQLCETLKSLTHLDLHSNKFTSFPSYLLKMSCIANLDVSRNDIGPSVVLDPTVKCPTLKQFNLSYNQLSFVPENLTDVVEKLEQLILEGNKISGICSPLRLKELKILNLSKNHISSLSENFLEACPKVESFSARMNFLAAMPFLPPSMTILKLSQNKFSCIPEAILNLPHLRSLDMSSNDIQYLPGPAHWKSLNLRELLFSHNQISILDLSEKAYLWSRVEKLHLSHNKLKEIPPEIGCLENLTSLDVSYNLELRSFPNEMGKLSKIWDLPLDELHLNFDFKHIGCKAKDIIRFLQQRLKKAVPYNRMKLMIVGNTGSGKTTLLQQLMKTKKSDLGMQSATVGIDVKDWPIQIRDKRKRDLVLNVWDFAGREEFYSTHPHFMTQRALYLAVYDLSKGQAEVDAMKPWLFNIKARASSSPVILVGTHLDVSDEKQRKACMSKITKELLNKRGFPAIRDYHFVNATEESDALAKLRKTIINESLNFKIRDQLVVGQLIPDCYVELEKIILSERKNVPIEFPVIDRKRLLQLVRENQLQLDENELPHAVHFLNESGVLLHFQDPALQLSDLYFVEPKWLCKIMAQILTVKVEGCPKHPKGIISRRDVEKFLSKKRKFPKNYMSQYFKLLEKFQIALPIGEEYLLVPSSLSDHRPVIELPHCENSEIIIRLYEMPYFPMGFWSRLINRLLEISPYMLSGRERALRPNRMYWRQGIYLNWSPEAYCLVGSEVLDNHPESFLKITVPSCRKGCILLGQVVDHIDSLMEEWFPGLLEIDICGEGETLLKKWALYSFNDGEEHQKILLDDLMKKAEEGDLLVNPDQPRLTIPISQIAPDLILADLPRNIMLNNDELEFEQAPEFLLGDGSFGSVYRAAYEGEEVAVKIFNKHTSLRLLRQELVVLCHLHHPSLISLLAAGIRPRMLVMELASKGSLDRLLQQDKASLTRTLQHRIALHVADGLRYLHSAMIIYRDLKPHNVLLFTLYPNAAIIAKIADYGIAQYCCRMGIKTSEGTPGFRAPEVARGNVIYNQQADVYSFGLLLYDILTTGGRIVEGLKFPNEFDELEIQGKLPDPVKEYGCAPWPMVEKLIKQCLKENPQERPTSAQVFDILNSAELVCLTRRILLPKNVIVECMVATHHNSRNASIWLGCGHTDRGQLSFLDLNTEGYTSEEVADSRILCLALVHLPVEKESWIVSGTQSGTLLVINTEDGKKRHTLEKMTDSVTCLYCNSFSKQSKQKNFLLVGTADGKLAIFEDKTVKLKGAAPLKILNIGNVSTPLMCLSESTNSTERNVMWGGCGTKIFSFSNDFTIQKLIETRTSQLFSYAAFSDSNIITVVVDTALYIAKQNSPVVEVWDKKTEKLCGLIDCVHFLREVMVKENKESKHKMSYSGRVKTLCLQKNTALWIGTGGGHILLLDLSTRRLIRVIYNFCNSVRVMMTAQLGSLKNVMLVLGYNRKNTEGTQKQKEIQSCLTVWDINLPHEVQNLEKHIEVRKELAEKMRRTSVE

SMILES	IC50 [1] [nM]	Cell viability (% of Con. 10 μM) HepG2 (HepG2 cancer cells)	Cell viability (% of Con. 10 μM) HS746T (HS746T cancer cells)	IC50 [2] [nM]
CP(C)(=O)c1ccccc1Nc1nc(Nc2ccc3c(c2)CNCC3)ncc1Cl [compound 47, (2-((5-Chloro-2-((1,2,3,4-tetrahydroisoquinolin-7-yl)amino)pyrimidin-4-yl)amino)phenyl)dimethylphosphine oxide]	1 to 10	24 % of Con.	8 % of Con.	1 to 10
CP(C)(=O)c1ccccc1Nc1nc(Nc2ccc3c(c2)CCN(C(=O)C(F)(F)F)C3)ncc1Cl [compound 48, 1-(6-((5-Chloro-4-((2-(dimethylphosphoryl)phenyl)amino)pyrimidin-2-yl)amino)-3,4-dihydroisoquinolin-2(1H)-yl)-2,2,2-trifluoroethan-1-one]	1 to 10	37 % of Con.	9 % of Con.	1 to 10
CP(C)(=O)c1ccccc1Nc1nc(Nc2ccc3c(c2)CCNC3)ncc1Cl [compound 49, (2-((5-Chloro-2-((1,2,3,4-tetrahydroisoquinolin-6-yl)amino)pyrimidin-4-yl)amino)phenyl)dimethylphosphine oxide]	1 to 10	31 % of Con.	0.3 % of Con.	1 to 10
CC1(C)CN(C(=O)C(F)(F)F)Cc2cc(Nc3ncc(Cl)c(Nc4ccccc4P(C)(C)=O)n3)ccc21 [compound 50, 1-(7-((5-Chloro-4-((2-(dimethylphosphoryl)phenyl)amino)pyrimidin-2-yl)amino)-4,4-dimethyl-3,4-dihydroisoquinolin-2(1H)-yl)-2,2,2-trifluoroethan-1-one]	1 to 10	20 % of Con.	2 % of Con.	1 to 10
CC1NCCc2ccc(Nc3ncc(Cl)c(Nc4ccccc4P(C)(C)=O)n3)cc21 (stereo not shown) [compound 51, (2-((5-Chloro-2-((1-methyl-1,2,3,4-tetrahydroisoquinolin-7-yl)amino)pyrimidin-4-yl)amino)phenyl)dimethylphosphine oxide]	1 to 10	24 % of Con.	2 % of Con.	1 to 10
CC1(C)CNCc2cc(Nc3ncc(Cl)c(Nc4ccccc4P(C)(C)=O)n3)ccc21 [compound 52, (2-((5-Chloro-2-((4,4-dimethyl-1,2,3,4-tetrahydroisoquinolin-7-yl)amino)pyrimidin-4-yl)amino)phenyl)dimethylphosphine oxide]	1 to 10	21 % of Con.	1 % of Con.	1 to 10
CC(C)C1c2cc(Nc3ncc(Cl)c(Nc4ccccc4P(C)(C)=O)n3)ccc2CCN1C(=O)C(F)(F)F (stereo not shown) [compound 53, 1-(7-((5-Chloro-4-((2-(dimethylphosphoryl)phenyl)amino)pyrimidin-2-yl)amino)-1-isopropyl-3,4-dihydroisoquinolin-2(1H)-yl)-2,2,2-trifluoroethan-1-one]	1 to 10	23 % of Con.	14 % of Con.	1 to 10
CC1c2cc(Nc3ncc(Cl)c(Nc4ccccc4P(C)(C)=O)n3)ccc2CCN1C(=O)C(F)(F)F (stereo not shown) [compound 54, 1-(7-((5-Chloro-4-((2-(dimethylphosphoryl)phenyl)amino)pyrimidin-2-yl)amino)-1-methyl-3,4-dihydroisoquinolin-2(1H)-yl)-2,2,2-trifluoroethan-1-one]	1 to 10	17 % of Con.	4 % of Con.	1 to 10
CC(C)C1NCCc2ccc(Nc3ncc(Cl)c(Nc4ccccc4P(C)(C)=O)n3)cc21 (stereo not shown) [compound 55, (2-((5-Chloro-2-((1-isopropyl-1,2,3,4-tetrahydroisoquinolin-7-yl)amino)pyrimidin-4-yl)amino)phenyl)dimethylphosphine oxide]	1 to 10	19 % of Con.	2 % of Con.	1 to 10
CC(C)C1c2cc(Nc3ncc(F)c(NC4CCN(S(C)(=O)=O)CC4)n3)ccc2CCN1C(=O)C(F)(F)F (stereo not shown) [compound 58, 2,2,2-Trifluoro-1-(7-((5-fluoro-4-((1-(methylsulfonyl)piperidin-4-yl)amino)pyrimidin-2-yl)amino)-1-isopropyl-3,4-dihydroisoquinolin-2(1H)-yl)ethan-1-one]	100 to 1000	83 % of Con.	85 % of Con.	> 1000
COc1cc2c(cc1Nc1ncc(Cl)c(Nc3ccccc3P(C)(C)=O)n1)CN(C(=O)C(F)(F)F)CC2 [compound 62, 1-(7-((5-chloro-4-((2-(dimethylphosphoryl)phenyl)amino)pyrimidin-2-yl)amino)-6-methoxy-3,4-dihydroisoquinolin-2(1H)-yl)-2,2,2-trifluoroethan-1-one]	1 to 10	26 % of Con.	13 % of Con.	1 to 10
CP(C)(=O)c1ccccc1Nc1nc(Nc2ccc3cn[nH]c3c2)ncc1Cl [compound 64, (2-((2-((1H-Indazol-6-yl)amino)-5-chloropyrimidin-4-yl)amino)phenyl)dimethylphosphine oxide]	1 to 10	23 % of Con.	29 % of Con.	1 to 10
CP(C)(=O)c1ccccc1Nc1nc(Nc2ccc3[nH]ccc3c2)ncc1Cl [compound 65, (2-((2-((1H-Indol-5-yl)amino)-5-chloropyrimidin-4-yl)amino)phenyl)dimethylphosphine oxide]	1 to 10	20 % of Con.	23 % of Con.	1 to 10
CP(C)(=O)c1ccccc1Nc1nc(Nc2ccc3[nH]ncc3c2)ncc1Cl [compound 66, (2-((2-((1H-Indazol-5-yl)amino)-5-chloropyrimidin-4-yl)amino)phenyl)dimethylphosphine oxide]	1 to 10	31 % of Con.	22 % of Con.	1 to 10
CP(C)(=O)c1ccccc1Nc1nc(Nc2ccc3[nH]nc(Br)c3c2)ncc1Cl [compound 67, (2-((2-((3-Bromo-1H-indazol-5-yl)amino)-5-chloropyrimidin-4-yl)amino)phenyl)dimethylphosphine oxide]	1 to 10	33 % of Con.	25 % of Con.	1 to 10
CP(C)(=O)c1ccccc1Nc1nc(Nc2cccc3[nH]ccc23)ncc1Cl [compound 68, (2-((2-((1H-Indol-4-yl)amino)-5-chloropyrimidin-4-yl)amino)phenyl)dimethylphosphine oxide]	1 to 10	43 % of Con.	64 % of Con.	10 to 100
Cc1cc2cc(Nc3ncc(Cl)c(Nc4ccccc4P(C)(C)=O)n3)ccc2[nH]1 [compound 69, (2-((5-Chloro-2-((2-methyl-1H-indol-5-yl)amino)pyrimidin-4-yl)amino)phenyl)dimethylphosphine oxide]	1 to 10	29 % of Con.	23 % of Con.	1 to 10
Cc1ccc(Nc2ncc(Cl)c(Nc3ccccc3P(C)(C)=O)n2)c2[nH]cc(C#N)c12 [compound 70, 7-((5-chloro-4-((2-(dimethylphosphoryl)phenyl)amino)pyrimidin-2-yl)amino)-4-methyl-1H-indole-3-carbonitrile]	1 to 10	30 % of Con.	25 % of Con.	10 to 100
CP(C)(=O)c1ccccc1Nc1nc(Nc2cccc3cc[nH]c23)ncc1Cl [compound 71, (2-((2-((1H-Indol-7-yl)amino)-5-chloropyrimidin-4-yl)amino)phenyl)dimethylphosphine oxide]	1 to 10	63 % of Con.	83 % of Con.	10 to 100

— patent US20240270698A2, “NOVEL PYRIMIDINE DERIVATIVE AND USE THEREOF” (KOREA RESEARCH INSTITUTE OF CHEMICAL TECHNOLOGY, priority 2019, published 2024)
